Measurements published in paper PMC6915728 (Nature Communications, 2019).
Read-outs that look alike come from different tables or passages of the source.

Tests used:
[1] = test system: E. coli BW25113 overexpression strains (ASKA plasmids); assay: Minimum inhibitory concentration (MIC), serial broth dilution, single-gene overexpression strains vs empty-vector control; type: cell-based, Escherichia coli; details: for Relative MIC: broth dilution, MS medium, 100 µM IPTG, 30 °C, 20-24 h, OD600, 3 replicates
Description: (§1) Minimum inhibitory concentrations (MIC) were determined with a standard serial broth dilution technique with a minor modification. Specifically, instead of a two-fold dilution series, smaller AMP concentration steps were used (typically 1.2-fold) for two reasons. […] Second, gene overexpressions caused typically only small changes in the MICs of AMPs and therefore higher resolution was required. The protocol was as follows. From a stock solution of an AMP, 12-steps serial dilution was prepared in fresh MS medium in 96-well microtiter plates. Each AMP was represented in 11 different concentrations (3 wells per AMP concentration per strain). Three wells contained only medium to check the growth in the absence of AMP. After overnight growth in MS medium supplemented with chloramphenicol, bacterial strains were diluted 20-fold into fresh MS medium and grown until the cell density reached OD600 ~1. Cells were induced by 100 µM of IPTG and incubated for 1 h at 30 °C with continuous shaking at 300 rpm. Following incubation, approximately half-million cells were inoculated into the wells of the 96-well microtiter plate with a 96‐pin replicator. We used three independent replicates for each strain and the corresponding control. Two rows in the 96-well plate contained only MS medium in order to obtain the background OD value of the medium. Plates were incubated at 30 °C with continuous shaking at 300 rpm. After 20–24 h of incubation, OD600 values were measured in a microplate reader (Biotek Synergy 2).

[2] = test system: AMP-evolved E. coli lines; details: ref Spohn et al 2019, cited from earlier work
Excerpt: Supplement 41467_2019_13618_MOESM13_ESM.xlsx, sheet "Figure 6 and S15" | column: A comprehensive dataset of antimicrobial susceptibility of AMP-adapted lines to antimicrobial peptides (AMPs).

[3] = test system: bacterial species in which the gene showed activity; details: cited from earlier work
bacterial membrane = details: literature mining; ref superscript numbers in the cell, listed in Supplementary Data 7 sheet References; cited from earlier work
Excerpt: Supplement 41467_2019_13618_MOESM10_ESM.xlsx, sheet "AMP details" | column: Pore formation

E. coli BW25113 ΔmlaD = assay: MIC, serial broth dilution, mlaD knockout strain vs wild type; type: cell-based, Escherichia coli; details: mlaD deletion strain relative to control (E. coli BW25113); 3 replicates each; from optical density values of serial dilution plates, AMP in µg ml-1
Description: What could be the mechanism behind the antagonistic action of this pathway on membrane- versus intracellular-targeting AMPs? Since MlaD is part of a protein complex, it may lead to a loss-of-function effect upon overexpression[41],[42]. To test this, we asked whether overexpression and deletion of mlaD cause similar changes in susceptibility to a representative set of membrane- and intracellular-targeting AMPs.
as §1
A mlaD knockout strain of E. coli BW25113 carrying a kanamycin resistance cassette in the position of the gene was selected from the KEIO collection. The resistance marker was removed using plasmid-borne (pFT-A) expression of FLP recombinase leading to excision of the kanamycin resistance cassette. Cassette excision was verified by a polymerase chain reaction using the primers mlaD_del_ver_Fw (5′- […]) and mlaD_del_ver_Rev (5′- […]).
Supplementary Figure 13. […] The bacterial susceptibility of the mutant to AMPs was tested by MIC determination. Growth is shown relative to growth in the absence of the corresponding AMP. The blue line represents the mlaD knockout strain and the orange line represents the control strain (wild-type E. coli BW25113). Error bars indicate the standard errors based on three biological replicates. Source data are provided in the Source Data file.

[4] = overexpression strain narY, MIC of overexpression strain / MIC of empty-plasmid control

## Peptide glycine-leucine amide [PGLA]
[1]; overexpression strain gadW, MIC of overexpression strain / MIC of empty-plasmid control
  Relative MIC: 0.63
[1]; overexpression strain lptB, MIC of overexpression strain / MIC of empty-plasmid control
  Relative MIC: 1.66
[1]; overexpression strain mlaC, MIC of overexpression strain / MIC of empty-plasmid control
  Relative MIC: 1.3
[1]; overexpression strain mzrA, MIC of overexpression strain / MIC of empty-plasmid control
  Relative MIC: 1.2
[1]; [4]
  Relative MIC: 0.8
[1]; overexpression strain nikB, MIC of overexpression strain / MIC of empty-plasmid control
  Relative MIC: 1.25
[1]; overexpression strain ptsN, MIC of overexpression strain / MIC of empty-plasmid control
  Relative MIC: 0.71
[1]; overexpression strain uhpC, MIC of overexpression strain / MIC of empty-plasmid control
  Relative MIC: 1.25
[2]; AMP-adapted line BAC5_3
  Relative change in MIC (MIC of the AMP-adpated line / MIC of the ancestral strain): 1.4
[2]; AMP-adapted line BAC5_5
  Relative change in MIC (MIC of the AMP-adpated line / MIC of the ancestral strain): 1.1
[2]; AMP-adapted line BAC5_7
  Relative change in MIC (MIC of the AMP-adpated line / MIC of the ancestral strain): 0.9
[2]; AMP-adapted line BAC5_10
  Relative change in MIC (MIC of the AMP-adpated line / MIC of the ancestral strain): 1.3
[2]; AMP-adapted line CAP18_2
  Relative change in MIC (MIC of the AMP-adpated line / MIC of the ancestral strain): 2.5
[2]; AMP-adapted line CAP18_5
  Relative change in MIC (MIC of the AMP-adpated line / MIC of the ancestral strain): 5.2
[2]; AMP-adapted line CAP18_6
  Relative change in MIC (MIC of the AMP-adpated line / MIC of the ancestral strain): 1.6
[2]; AMP-adapted line CAP18_8
  Relative change in MIC (MIC of the AMP-adpated line / MIC of the ancestral strain): 3
[2]; AMP-adapted line CAP18_10
  Relative change in MIC (MIC of the AMP-adpated line / MIC of the ancestral strain): 4.3
[2]; AMP-adapted line HBD3_3
  Relative change in MIC (MIC of the AMP-adpated line / MIC of the ancestral strain): 2.3
[2]; AMP-adapted line HBD3_6
  Relative change in MIC (MIC of the AMP-adpated line / MIC of the ancestral strain): 3.6
[2]; AMP-adapted line HBD3_8
  Relative change in MIC (MIC of the AMP-adpated line / MIC of the ancestral strain): 3.3
[2]; AMP-adapted line HBD3_10
  Relative change in MIC (MIC of the AMP-adpated line / MIC of the ancestral strain): 1.9
[2]; AMP-adapted line LL37_1
  Relative change in MIC (MIC of the AMP-adpated line / MIC of the ancestral strain): 1.4
[2]; AMP-adapted line LL37_3
  Relative change in MIC (MIC of the AMP-adpated line / MIC of the ancestral strain): 1.9
[2]; AMP-adapted line LL37_6
  Relative change in MIC (MIC of the AMP-adpated line / MIC of the ancestral strain): 1.8
[2]; AMP-adapted line LL37_7
  Relative change in MIC (MIC of the AMP-adpated line / MIC of the ancestral strain): 5.2
[2]; AMP-adapted line LL37_10
  Relative change in MIC (MIC of the AMP-adpated line / MIC of the ancestral strain): 1.8
[2]; AMP-adapted line PEX_1
  Relative change in MIC (MIC of the AMP-adpated line / MIC of the ancestral strain): 3.5
[2]; AMP-adapted line PEX_4
  Relative change in MIC (MIC of the AMP-adpated line / MIC of the ancestral strain): 3.5
[2]; AMP-adapted line PEX_5
  Relative change in MIC (MIC of the AMP-adpated line / MIC of the ancestral strain): 1.9
[2]; AMP-adapted line PEX_6
  Relative change in MIC (MIC of the AMP-adpated line / MIC of the ancestral strain): 2.1
[2]; AMP-adapted line PEX_7
  Relative change in MIC (MIC of the AMP-adpated line / MIC of the ancestral strain): 2.9
[2]; AMP-adapted line PR39_1
  Relative change in MIC (MIC of the AMP-adpated line / MIC of the ancestral strain): 1.6
[2]; AMP-adapted line PR39_2
  Relative change in MIC (MIC of the AMP-adpated line / MIC of the ancestral strain): 1.5
[2]; AMP-adapted line PR39_5
  Relative change in MIC (MIC of the AMP-adpated line / MIC of the ancestral strain): 0.8
[2]; AMP-adapted line PR39_7
  Relative change in MIC (MIC of the AMP-adpated line / MIC of the ancestral strain): 1.5
[2]; AMP-adapted line PR39_10
  Relative change in MIC (MIC of the AMP-adpated line / MIC of the ancestral strain): 0.4
[2]; AMP-adapted line PROA_2
  Relative change in MIC (MIC of the AMP-adpated line / MIC of the ancestral strain): 1.6
[2]; AMP-adapted line PROA_3
  Relative change in MIC (MIC of the AMP-adpated line / MIC of the ancestral strain): 1.1
[2]; AMP-adapted line PROA_7
  Relative change in MIC (MIC of the AMP-adpated line / MIC of the ancestral strain): 0.6
[2]; AMP-adapted line PROA_8
  Relative change in MIC (MIC of the AMP-adpated line / MIC of the ancestral strain): 1.2
[2]; AMP-adapted line PROA_9
  Relative change in MIC (MIC of the AMP-adpated line / MIC of the ancestral strain): 0.9
[2]; AMP-adapted line PXB_2
  Relative change in MIC (MIC of the AMP-adpated line / MIC of the ancestral strain): 1.8
[2]; AMP-adapted line PXB_5
  Relative change in MIC (MIC of the AMP-adpated line / MIC of the ancestral strain): 1.5
[2]; AMP-adapted line PXB_6
  Relative change in MIC (MIC of the AMP-adpated line / MIC of the ancestral strain): 8
[2]; AMP-adapted line PXB_8
  Relative change in MIC (MIC of the AMP-adpated line / MIC of the ancestral strain): 4.5
[2]; AMP-adapted line PXB_10
  Relative change in MIC (MIC of the AMP-adpated line / MIC of the ancestral strain): 5.5
[3]; Salmonella typhimurium, Salmonella typhi, ref http://www.sciencedirect.com/science/article/pii/S009286740081750X
  Gene that modulates bacterial susceptibility to the AMP: pagP
Bacterial membrane
  Pore formation (whether AMP makes pores in the bacterial membrane): Yes10,11

## GIINTLQKYYRVRGGRAVLSLPKEEQIGKSTRGRKRRKK [HBD3, Human beta-defensin-3, human host-defense peptide; cluster C2]
[1]; mlaD overexpression strain relative to control (wild-type+empty vector), 3 replicates each, from optical density values of serial dilution plates, AMP in µg ml-1
  Average relative change in MIC: 1.75
[1]; overexpression strain hyfA, MIC of overexpression strain / MIC of empty-plasmid control
  Relative MIC: 0.8
[1]; overexpression strain mlaD, MIC of the overexpression strain / MIC of the control strain (wild-type carrying the empty plasmid)
  Relative MIC: >1.55
[1]; [4]
  Relative MIC: 0.8
E. coli BW25113 ΔmlaD
  Average relative change in MIC: 1.56
[3]; Staphylococcus epidermidis, ref http://onlinelibrary.wiley.com/doi/10.1046/j.1462-5822.2004.00367.x/epdf
  Gene that modulates bacterial susceptibility to the AMP: icaA(ica operon)
